Results on one compound are retold here after publication PMC5805504 (Oncotarget, 2017).

Where two headings read alike, the source gives them in different places.

For one data set, the target named is TGFβRII (Homo sapiens, UniProt P37173). Description: Confirmatory TGFβRII binding assay.
The test system of data set [1] is BMP ligand (SMAD1/5/8-responsive promoter). The data set can be described thus: Cell based luciferase reporter assay (SMAD1/5/8), BMP4-stimulated HEK293_SMAD1/5/8 cells. Conditions: Homo sapiens; BMP4 20 nM stimulated HEK293_SMAD1/5/8. (In general: A reporter such as luciferase makes a cellular process visible.)
The subject of a further data set is pSMAD in Mv1Lu cells. The data set can be described thus: Endogenous pSMAD inhibition in TGFβ1 stimulated Mv1Lu cells. In kind it is cell-based, mink. Particulars: data not shown.
For the next data set, the system named is pSMAD in NIH3T3 cells. The data set can be described thus: pSMAD inhibition in NIH3T3 cells. Particulars: Mus musculus, read-out: IC50, inhibition of pSMAD, data not shown. In kind it is cell-based.
Data set [2] concerns pSMAD in Calu6 and EMT6-LM2 tumors. Description: PK/PD profile from Calu6 and EMT6-LM2 in vivo target inhibition studies (statements not split by model). Set-up: species or system mice.
In a further data set the test system is KPC-M09 cells. Description: E-Cadherin assay / TGFβ1-mediated EMT in KPC-M09 cells. In kind it is cell-based, mouse. Particulars: 30 ng/ml TGFβ plus 2 μM or 10 μM, 48 hours. From the text: The primary mouse pancreatic ductal adenocarcinoma (PDAC) cell line KPC-M09 was derived from a pancreatic GEMM [KrasLSL-G12D/+; Trp53LSL-R172H/+; Ptf1aCre/+ (KPC)]. […] Cell morphological changes were imaged at 20X (bright field). Cells were stained with an anti-E-cadherin primary Ab (Cell Signaling, clone 24E10, diluted 1:200) followed with a secondary anti-rabbit Cy3 (Cell Signaling, diluted 1:500). DAPI was used as a counter stain and cells were imaged at 40X.

The test system of data set [3] is human NK and CD8+ T cells. Description: TGFβ1 suppression of human NK and CD8+ T cell cytokine secretion. In kind it is cell-based. Conditions: TGFβ1 10 ng/ml, ELISA. As for the experimental part: Blood from healthy donors were obtained from the New York Blood Center. After isolation of PBMCs via high density gradient centrifugation with Ficoll-Paque, NK cells and CD8^+ T cells were purified from PBMCs by magnetic antibody sorting (Miltenyi Biotec) following the manufacturer's instructions. Purified CD8^+ T cells and NK cells were re-suspended separately in complete media (RPMI1640, 5% FBS, 10mM HEPES, 1×NEAA, 1×L-glu, sodium pyruvate, 1×penn/strep, 0.055 mM βME, 50 U/ml IL-2) and plated in 96-well plates at 37°C for 2 days at a density of 5 × 10^4/well, in triplicates. CD8^+ T cells were stimulated with human T cell activation/expansion beads (Miltenyi Biotec; 130-091-441), while NK cells were stimulated with the same beads plus 10 U/ml IL-2. Cells were cultured with or without TGFβ1 at 10 ng/ml. […] Cytokine release in supernatants was measured by ELISA (R&D; human Granzyme B: DY2906; human INFγ: DY285-05). One-way ANOVA with Dunnett's test was used to compare the TGFβ+Gal treatments to the TGFβ+DMSO treatment.
(In an ELISA, binding on a coated surface is turned into a signal by an enzyme label.)

The test system of data set [4] is 4T1 syngenic murine breast cancer model. The data set can be described thus: 4T1 in vivo syngenic breast cancer model. On the set-up: species or system BALB/c mice. As for the experimental part: Female BALB/c mice from Taconic Farms weighing 20 to 24 grams were acclimated for 1 week prior to study initiation, had ad libitum access to food and were shaved in the implant area prior to the orthotopic injection of 1 × 10^5 4T1 cells into the mammary fat pad in a volume of 20 μL media. Ten animals per group were utilized for tumor measurement and survival endpoints. […] Tumor volumes were determined by electronic caliper every 2 to 3 days. Statistical analysis was performed by repeated measures analysis and Kaplan-Meier analysis.

The test system of another data set is pSMAD in PBMC. Description: 13762 rat tumor model, ex vivo stimulated PBMC pSMAD. In kind it is in vivo, Fischer 344 rats. Conditions: Table 4, read-out: IC50 of pSMAD (%CV). The procedure: Fischer 344 rats from Taconic Farms weighing 150 to 160 grams were acclimatized for 1 week prior to study initiation and had ad libitum access to food. Rats were shaved in the implant area then given a subcutaneous flank injection of 5 × 10^6 13762 rat mammary carcinoma cells in a 1:1 (v/v) mixture with Matrigel in media. […] Tumor, PBMCs, and plasma were collected at 0.5, 1, 1.5, 2, 4, 8, 16, and 24 hours for further analysis.
Ex vivo stimulation and assessment of target modulation in PBMCs have been described in detail previously. Briefly, whole blood (2 to 3 mL) was collected by cardiac puncture from Fischer 344 rats and transferred to BD Vacutainer CPT sodium citrate tubes. PBMCs isolated from whole blood were stimulated with TGFβ1 at a final concentration of 100 pM at 37°C for one hour. Cells were washed with cold PBS and lysed in 50-100 μL of lysis buffer, and pSMAD and tSMAD levels were assessed by immunoblot assay as described above.
For correlation of pSMAD modulation in 13762 rat mammary carcinoma tumors and PBMCs, data were normalized using an analysis of co-variance of log pSMAD versus log tSMAD and treatment group. The slope (b) from this analysis was used to normalize the pSMAD values using pSMAD/(tSMAD)^b. Percent inhibition was calculated by the following formula: 100-(y/x)*100 where y = normalized pSMAD value and x = mean normalized pSMAD in the vehicle control. […]

Details of data set [5]: method as in PMID 25424852. Conditions: patients with glioblastoma; cited from earlier work.
For data set [6] the following is noted: second line glioblastoma; cited from earlier work.
Another data set in a line: in vivo. Particulars: female, BALB/c, mouse, plasma, po, 25 mg/kg.
A further data set deals with U87MG xenograft tumors. Description: U87MG glioblastoma xenograft tumor model. Particulars: galunisertib 25 mg/kg BID oral; lomustine (CCNU) 30 mg/kg single intraperitoneal dose; alone or combined.
In a further data set the test system is pSMAD in 4T1-LP cells. The data set can be described thus: TGFβ1-induced pSMAD inhibition in 4T1-LP cells (ELISA).
In another data set the test system is pSMAD in EMT6-LM2 cells. Description: TGFβ1-induced pSMAD inhibition in EMT6-LM2 cells (ELISA).

As usually defined, the Tmax is the time at which the peak concentration occurs.

Sequence of TGFβRII (P37173 23-567): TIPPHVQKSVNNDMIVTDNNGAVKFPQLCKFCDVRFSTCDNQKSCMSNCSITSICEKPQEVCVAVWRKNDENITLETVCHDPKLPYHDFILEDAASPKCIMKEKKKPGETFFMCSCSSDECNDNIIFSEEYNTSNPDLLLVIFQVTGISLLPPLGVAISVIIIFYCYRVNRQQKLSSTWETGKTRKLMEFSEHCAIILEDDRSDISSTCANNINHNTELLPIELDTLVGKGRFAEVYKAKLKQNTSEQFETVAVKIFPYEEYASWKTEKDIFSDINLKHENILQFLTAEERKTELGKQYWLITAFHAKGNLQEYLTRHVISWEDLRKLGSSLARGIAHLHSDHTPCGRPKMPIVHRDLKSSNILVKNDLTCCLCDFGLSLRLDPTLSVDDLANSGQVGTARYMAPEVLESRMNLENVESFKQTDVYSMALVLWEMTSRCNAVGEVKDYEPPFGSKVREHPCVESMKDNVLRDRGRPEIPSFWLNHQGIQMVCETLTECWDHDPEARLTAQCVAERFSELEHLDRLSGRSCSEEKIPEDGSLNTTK
Experimental for U87MG xenograft tumors: Five million U87MG glioblastoma cells, obtained from ATCC (Manassas, VA), were injected subcutaneously in the flank of 8- to 9-week old, female, athymic nude mice (Harlan, Indianapolis, IN) in a 1:1 mixture of 1x PBS and matrigel (Becton Dickinson, Bedford, MA). Mice were monitored daily for palpable tumors. […] The tumor volumes were recorded at regular intervals following treatment.
Experimental for pSMAD in 4T1-LP cells: (§1) Next, the samples were homogenized for 15 seconds using Bioruptor® UCD-200 by Diagenode at medium power.
(§2) Total and pSMAD2/3 levels were assessed independently on two separate ELISA plates. […] To the pSMAD ELISA plate, 100 μL per well of lysate (ranging from 0.04-0.1 mg total protein) was added to the appropriate wells. To the total SMAD ELISA plate, 10% of the total protein that was added to the pSMAD, was added to the appropriate wells (0.004-0.01 mg protein final). A standard curve was also added to both ELISA plates (p- and tSMAD plates) using recombinant HIS-pSMAD2 protein (Eli Lilly and Company). Plates were incubated overnight then washed four times with wash buffer. […] Following one hour of incubation, plates were washed and developed using 3, 3’, 5, 5’-tetramethylbenzidine substrate (TMB; Surmodics/BioFX #TMBW-0100-01) and absorbance (OD) was read at 450 nm on a plate reader.
(§3) Percent inhibition of normalized pSMAD2 levels was calculated by first determining the ratio of tSMAD to pSMAD values for the vehicle group. […]
Experimental for pSMAD in EMT6-LM2 cells: as §1, §2, §3
Experimental for pSMAD in EMT6-LM2 tumors: For in vivo measurement of tumor cell pSMAD activity, tumors were harvested from mice at the indicated time points post-treatment, snap frozen in liquid nitrogen, then pulverized in lysis buffer [EDTA 5 mM, EGTA 5 mM, sodium pyrophosphate 30 mM, sodium chloride 6.7 mM, sodium fluoride 50 mM, and 1% triton in water, pH 7.4 with protease and phosphatase inhibitors (Sigma, p8340, p5726, p0044) and sodium orthovanadate 2.5 mM]. Protein concentration was estimated with DC protein assay kit (BioRad).
Percent inhibition of normalized pSMAD2 levels was calculated by first determining the ratio of tSMAD to pSMAD values for the vehicle group. […] Percent inhibition for compound treated groups was determined relative to the minimum pSMAD inhibition of the vehicle group using the formula: [(100- (normalized pSMAD in the experimental treatment group/normalized pSMAD in the vehicle treated group)]. IC50 of pSMAD inhibition was calculated for the data using non-linear regression to fit the standard four parameter logistic model using GraphPad Prism 6.
Female athymic nu/nu mice or immune competent syngenic BALB/c mice (Charles River or Taconic Farms, respectively, 22 to 28 grams) were maintained in microisolator cages, received food and water ad libitum, and were quarantined for 1 week before experimental manipulation. Sub-confluent Calu6 human non-small cell lung cancer (NSCLC) cells were injected subcutaneously in the flank of nude mice (1x 10^7cells/per animal) in 0.2 mL of culture medium mixed with Matrigel (BD Biosciences, 1:1 v/v). EMT6-LM2 murine triple negative breast cancer tumor cells (5 × 10^5 cells/per animal in the absence of matrigel) were implanted on the flank of BALB/c mice. EMT6-LM2 cells were generated from parental EMT6 cells which were passaged twice from spontaneous lung metastases (LM) following subcutaneous growth. When the tumor volume reached ~250 mm^3, mice were randomized and separated into treatment groups.
Tumors and plasma were collected 2 hours post dosage for analysis of pSMAD and compound levels.
Tumors and plasma were collected at the indicated time points (0.5, 1, 1.5, 2, 4, 8, and 16 hours) for analysis of pSMAD and compound levels.
Percent target inhibition was calculated as described above then was modeled as a function of either dose or plasma concentration.

Turning to `Cc1cccc(-c2nn3c(c2-c2ccnc4ccc(C(N)=O)cc24)CCC3)n1.O` [galunisertib, 4-[2-(6-methylpyridin-2-yl)-5,6-dihydro-4H-pyrrolo[1,2-b]pyrazol-3-yl]quinoline-6-carboxamide monohydrate], the IC50 at TGFβRII was 0.43 µM; in data set [1], above 10 µM; in the data set with pSMAD in Mv1Lu cells it was 0.176 µM; in the data set with pSMAD in NIH3T3 cells it was 0.064 µM; with pSMAD in PBMC, 1.96 µM; in the data set on pSMAD in 4T1-LP cells (Mus musculus, read-out: IC50, pSMAD activity, 4T1-LP, TGFβ1 10 ng/ml, ELISA), 1.77 µM. In addition, the IC50 in the data set on pSMAD in 4T1-LP cells (read-out: IC50, pSMAD activity, 4T1-LP, TGFβ1 10 ng/ml, ELISA) turned out to be 1.77 µM; with pSMAD in EMT6-LM2 cells (Mus musculus, read-out: IC50, pSMAD activity, EMT6-LM2, TGFβ1 10 ng/ml, ELISA) it was 0.894 µM; in the data set with pSMAD in EMT6-LM2 cells (read-out: IC50, pSMAD activity, EMT6-LM2, TGFβ1 10 ng/ml, ELISA), 0.89 µM. Besides, in data set [2] (oral, data not shown), the TED90 was determined as 75 mg/kg. The “target inhibition in vivo over 12 hours” value in data set [2] (single oral dose with an exposure of […]-5 μM) is at least 20%. In addition, the “TGFβ1-mediated EMT (epithelial morphology, membrane E-cadherin)” value in the data set on KPC-M09 cells is “prevented TGFβ1-mediated EMT”. Also, the “TGFβ1 suppression of IFNγ and granzyme B secretion” value in data set [3] is “prevented the suppression of IFNγ and granzyme B secretion”. For the same compound, the tumor growth delay in [4] (75 mg/kg twice daily oral gavage, 500 mm^3 crossing time, p < 0.01) stood at 13 ± 2.4 days. For the same compound, in data set [4] (75 mg/kg twice daily, Kaplan-Meier, p = 0.01), the survival advantage is 4.5 days. In addition, in data set [4] (75 mg/kg twice daily, data not shown), the body weight result is recorded as “No body weight loss”. For the same compound, the “pSMAD inhibition at maximum plasma exposure” value in the data set with pSMAD in EMT6-LM2 tumors (EMT6-LM2, at 30 minutes) is given as ~ 70%. Further, in the data set with pSMAD in EMT6-LM2 tumors (EMT6-LM2, single oral dose, tumors 2 hours post dosage), the “TED50, total effective dose to inhibit 50% pSMAD” value is reported as 19.7 mg/kg. Moreover, the maximum plasma exposure result in the data set on pSMAD in EMT6-LM2 tumors (EMT6-LM2 time course, single oral dose) was “up to 6 μM”. The “clinical activity, phase I” value in [5] is given as “promising activity”. In [6], the “clinical outcome versus lomustine, phase II” value is “failed to show improvement over lomustine”. The Tmax in the data set “in vivo” is 30 min. The “anti-tumor effect (tumor volume)” value in the data set with U87MG xenograft tumors is on record as “modest anti-tumor effect”.
